Experimental data from US4066650A, “Keto-aldehyde-amine addition products and method of making same” (priority 1975, dated 1978).

How the values were obtained:
[1] = system: Sarcoma-180; experiment: Anti-tumor action on subcutaneous Sarcoma-180 in mice; format: in vivo, Swiss albino mice (Charles River CD-1 strain); set-up: ED: unit not given here; conditions: for IT (therapeutic index LD10/ED90): mice
Method: On the eleventh day (tumer age 14 days) the test and control mice were sacrificed, the tumor or tumorous area was cut out, weighed and stored in formaldehyde for histological examination. At the same time the liver, kidneys, spleen, heart, and a piece of the small intestine were collected and stored in formaldehyde for histopathological evaluation of the effect of the drugs on these tissues and organs.
The anti-neoplastic action of the drugs was assayed by comparison of the tumor weight present in treated and control animals and expressed as the percent of controls average weight (T/C%). The presence of malignancy in the tumors or tumor-areas of the treated animals was verified by histological examination.
The reabsorption of tissue, formed between the inocculation of the cancer cells and the onset of the treatment is relatively slow. Treated animals even under strong cancerostatic action of the drugs show a small quantity (100-200 mg) of tissue in the area where the tumor cells where deposited. It is therefore difficult to tell the nature of these residual tissues by macroscopic examination. Most of these residual "lumps" are made up of connective tissues and necrotic, scar tissues. If it were regarded as neoplasia without histological examination the T/C% calculation would give an erratic result in the evaluation of the anti-cancer action of the compound. Histological examination of these "lumps" therefore is exceedingly important in order to arrive at a valid evaluation of the effectiveness of the drugs especially in short-term experiments (10 days) as carried out in the present assays.

[2] = in vivo; conditions: mouse, in vivo, ip
Method: (§1) The biological effects of methylglyoxal maleimide ("A") and methylglyoxal glutaconic imide ("B") were determined by tests on normal (non-tumorous) and subcutaneous Sarcoma-180 tumor-bearing mice. […] The compounds were administered by intraperitoneal route and the values were calculated by standard methods (Goldin A., in Meth.Can.Res. 4, p. 193, 1968).
(§2) A thirty-day survival test was carried out with normal mice to determine any possible delayed toxicity.
(§3) The test solutions were prepared by dissolving either 38.72 mg of methylglyoxal maleimide ("A") or 5278 mg of methylglyoxal glutaconic imide ("B") in 100 ml of physiological saline. The pH of the solution was adjusted to 6.0, sterilized on Millipore filtration and stored in sterile vials at about 10° C. One […] of such solutions contained 0.387 mg of compound "A" or 52.78 mg of compound "B", respectively and when injected into mice of an average weight of 26 grams the dose was equivalent to 14.884 mg/kg of the compound "A" and 2030 mg/kg of the compound "B".
(§4) Normal, non-tumor-bearing mice of the same strain, sex and weight were also randomized and placed in separate test groups.
(§5) The compositions were injected at different dose levels, each dose being double the next-lower dose, with three test groups (30 mice) for each dose level. The injection was effected intraperitoneally into normal and tumor-bearing mice, starting on the fourth day after the inocculation with cancer, once daily for ten consecutive days. […] A proper number of normal and tumorous mice was treated with saline solution in the same manner, frequency and volume as a control experiment. The body weight change and mortality (acute toxicity) were recorded daily.
(§6) A number of normal animals treated with the drugs in the same manner as the tumorous ones were also sacrificed on the eleventh day, and their organs were collected for histological examination.

[3] = system: normal (non-tumorous) mice; experiment: Acute toxicity (mortality), body weight change and 30-day survival in normal mice; conditions: for LD10 (maximum tolerated dose at 10% lethality) / effect of reduction in the total volume of injection on mortality: mice; for LD10 (maximum tolerated dose at 10% lethality) / 30 day mortality rate of all treated nontumorous animals (compared with mortality in 10 days): i.p. daily for 10 days; for effect of reduction in the total volume of injection on mortality: i.p., volume below 1.0 ml/animal/day; for 30 day mortality rate of all treated nontumorous animals (compared with mortality in 10 days): 30 day observation
Method: as §1, §2, §3, §4, §5, §6

[4] = in vivo; conditions: mouse, in vivo, ip; remark: listed apart in the source
Method: as §1, §3
(§7) Random-bred Swiss albino mice (Charles River CD-1 strain, average weight 26±3 g, females) were inocculated with 25 million Sarcoma-180 cells (in about 0.25 ml of ascitic fluid, cell age 7 days) on the right scapular region. The animals were randomized on the 4th day after the inocculation with the cancer cells, placed in separate test groups of 10 mice per group (5 mice/cage) and weighed.
(§8) The compositions were injected at different dose levels, each dose being double the next-lower dose, with three test groups (30 mice) for each dose level. The injection was effected intraperitoneally into normal and tumor-bearing mice, starting on the fourth day after the inocculation with cancer, once daily for ten consecutive days. The volume of the injection at each dose level was brought up to 1.0 ml with saline. A proper number of normal and tumorous mice was treated with saline solution in the same manner, frequency and volume as a control experiment. The body weight change and mortality (acute toxicity) were recorded daily.

[5] = system: Sarcoma-180 tumor-bearing mice; experiment: in vivo
Method: as §1, §3, §7, §8

[6] = system: skin graft; experiment: Skin graft rejection (orthotopic skin heterografts white to gray and gray to white); format: in vivo, Swiss albino mice and C3HStCrl mice; conditions: 3.744 mg/kg i.p. daily, cumulative; for rejection on 31-40 days: g to w line; for rejection on 26-30 days: w to g line
From the text: Skin grafting in mice is well established and this tissue is among the most sensitive indicators of histocompability differences. The retnetion of skin graft between genetically non-related mice is an excellent method of evaluating activity against rejection mechanism. p As the rejection of transplants is associated with antigen formation against the incompatible proteins of the donated tissue, a drug which specifically represses the protein synthesis without affecting the intermediary metabolism of the host is a potential candidate for combatting rejection.
The experiments described here were performed on random-bred Swiss albino mice (white, females, average body weight 26±3 g; Charles River CD-1-strain) and inbred C3HStCrl mice (cinnamon gray, females, average body weight 20±2 grams; Charles River pedigreed breeders from L. C. Strong Foundation) and othotopic skin transplants were made in both ways, that is, white to gray and gray to white.
Standard transplantation technique (R. E. Billingham, W. K. Silvers in Transplantation of tissues and cells, The Wistar Institute Press, Philadelphia, p. 8, 1961) was utilized: From nembutal anesthetized animals 4-6 "pinch"-grafts (full thickness, 3-4 mm in diameter) of the close clipped and sterilized skin were collected from the thorax and immediately transplanted. The grafts were positioned in the "beds" (in place of the pinch-graft) and were held in position by tulle gras (vaseline-impregnatedgauze) and by plaster-of-Paris impregnated bandage around the thorax.
The bandages were removed on the 6-9th day after the transplantation and the future development of the grafts was followed by macroscopical observations.
Positive and negative controls were made simultaneously for skin rejection:
a. Four positive control isografts (white to white, and gray to gray) were made. […] On the 21-28th day the fur-bearing skin had regenerated a completely new crop of hairs indistinguishable from the original population with respect to colors, density and orientation.
b. Four negative control heterografts (white to gray and gray to white) were made without treatment. […] On the 10-12th day after transplantation intravascular thrombies, capillary ruptures, extravasation of blood were the first signs that the grafts were heading for necrosis and rejection which occurred on the 18-25th day.
The heterografts with treatment followed three courses with methylglyoxal-maleimide (at dose level 3.744 mg/kg/animal/day) administered intraperitoneally in a total amount of 1.0 ml/animal/day.
i. Animals were treated for 10 days with the composition before grafts were exchanged and treatment was discontinued on the day of transplantation.
ii. Animals were not treated before the grafts were exchanged but the treatment started on the day of transplantation and continued for 10 days.
iii. Animals were treated for 10 days with the drug before the grafts were exchanged and the treatment schedule was continued for 25 days after the transplantation.

[7] = Water solubility; format: physicochemical
[8] = (ii) post graft treatment for 10 days
[9] = (iii) pretreatment for 10 days and post graft treatment for 25 days
[10] = tumorous mice, 0.234 mg/kg i.p. daily for 10 days
[11] = tumorous mice, 0.468 mg/kg i.p. daily for 10 days
[12] = tumorous mice, 0.936 mg/kg i.p. daily for 10 days
[13] = tumorous mice, 1.872 mg/kg i.p. daily for 10 days
[14] = tumorous mice, 3.744 mg/kg i.p. daily for 10 days
[15] = tumorous mice, 7.488 mg/kg i.p. daily for 10 days

In the case of `CC(=O)C(O)N1C(=O)C=CCC1=O` (centres unmarked) [Methylglyoxal-glutaconic imide, N'-(2-keto-propane-1-ol)-2,6-dioxopyridine], the ED90 ([1]; Mus musculus, Sarcoma-180, ip, 240 h, read-out: ED90 (effective dose at 90% effectiveness)) is reported as 210 mg/kg, the “IT (therapeutic index LD10/ED90)” value ([1]; i.p. daily for 10 days) is reported as 6.23 and the ED ([1]; tumorous mice, 63.5 mg/kg i.p. daily for 10 days) is reported as > 5. For the same molecule, the ED ([1]; tumorous mice, 127 mg/kg i.p. daily for 10 days) was 55, the ED ([1]; tumorous mice, 254 mg/kg i.p. daily for 10 days) was 100 and the ED ([1]; tumorous mice, 508 mg/kg i.p. daily for 10 days) was 100. For the same molecule, the ED ([1]; tumorous mice, 1016 mg/kg i.p. daily for 10 days) was 100, the mortality at 240 h ([2]; 63.5 mg/kg) was 0% and the mortality at 240 h ([2]; 127 mg/kg) was 0%. It also gave a mortality at 240 h ([2]; 254 mg/kg) of 0%, a mortality at 240 h ([2]; 508 mg/kg) of 0% and a mortality at 240 h ([2]; 1016 mg/kg) of 0%. The mortality at 240 h ([2]; 2032 mg/kg) was 100%, the “LD10 (maximum tolerated dose at 10% lethality)” value [3] was 1310 mg;kg and the “effect of reduction in the total volume of injection on mortality” value [3] was “increase in mortality”. The Δ body wt ([3]; mouse, in vivo, ip, 63.5 mg/kg) was “+0.55”, the Δ body wt ([3]; mouse, in vivo, ip, 127 mg/kg) was “+0.3” and the Δ body wt ([3]; mouse, in vivo, ip, 254 mg/kg) was “+0.15”. It also gave a Δ body wt ([3]; mouse, in vivo, ip, 508 mg/kg) of -0.1, a Δ body wt ([3]; mouse, in vivo, ip, 1016 mg/kg) of -0.1 and a Δ body wt ([3]; mouse, in vivo, ip, 1524 mg/kg) of -0.4. The “30 day mortality rate of all treated nontumorous animals (compared with mortality in 10 days)” value ([3]; normal mice) was “identical”, the mortality at 240 h ([4]; 63.5 mg/kg) was 0% and the mortality at 240 h ([4]; 127 mg/kg) was 0%. For the same molecule, the mortality at 240 h ([4]; 254 mg/kg) was 0%, the mortality at 240 h ([4]; 508 mg/kg) was 0% and the mortality at 240 h ([4]; 1016 mg/kg) was 0%. The mortality at 240 h ([4]; 2032 mg/kg) was 100%, the Δ body wt ([5]; mouse, in vivo, ip, 63.5 mg/kg) was “+0.6” and the Δ body wt ([5]; mouse, in vivo, ip, 127 mg/kg) was “+0.35”. The Δ body wt ([5]; mouse, in vivo, ip, 254 mg/kg) was “+0.4”, the Δ body wt ([5]; mouse, in vivo, ip, 508 mg/kg) was “+0.1” and the Δ body wt ([5]; mouse, in vivo, ip, 1016 mg/kg) was -0.3.

In the case of `CC(=O)C(O)N1C(=O)C=CC1=O` (centres unmarked) [Methylglyoxal-maleimide, N'-(2-keto-propane-1-ol)-2,5-dioxopyrroline-3-ene], the “rejection on 31-40 days” value ([6]; (i) pretreatment for 10 days) is reported as 100%, the “rejection on 26-30 days” value ([6]; (i) pretreatment for 10 days) is reported as 30% and the “rejection on 31-40 days” value [6, 8] is reported as 60%. The “rejection on 26-30 days” value [6, 8] was 10%, the “rejection on 31-40 days” value [6, 9] was 10% and the “rejection on 26-30 days” value [6, 9] was “No rejection”. The ED99 ([1]; Mus musculus, Sarcoma-180, ip, 240 h, tumorous mice, i.p. daily for 10 days) was 1.15 mg/kg, the “IT (therapeutic index LD10/ED90)” value ([1]; i.p. daily for 10 days) was 7.46 and the ED% [1, 10] was > 0.5%. For the same molecule, the ED% [1, 11] was ~ 1%, the ED% [1, 12] was 60% and the ED% [1, 13] was 100%. It also gave an ED% [1, 14] of 100%, an ED% [1, 15] of 100% and a mortality at 240 h ([2]; 0.234 mg/kg) of 0%. For the same molecule, the mortality at 240 h ([2]; 0.468 mg/kg) was 0%, the mortality at 240 h ([2]; 0.936 mg/kg) was 0% and the mortality at 240 h ([2]; 1.872 mg/kg) was 0%. It also gave a mortality at 240 h ([2]; 3.744 mg/kg) of 0%, a mortality at 240 h ([2]; 7.488 mg/kg) of 0% and a mortality at 240 h ([2]; 14.896 mg/kg) of 100%. For the same molecule, the “LD10 (maximum tolerated dose at 10% lethality)” value [3] was 8.59 mg/kg, the “effect of reduction in the total volume of injection on mortality” value [3] was “increase in mortality” and the Δ body wt ([3]; normal mice, 0.234 mg/kg i.p. daily for 10 days) was “+1.0”. For the same molecule, the Δ body wt ([3]; normal mice, 0.468 mg/kg i.p. daily for 10 days) was “+0.7”, the Δ body wt ([3]; normal mice, 0.936 mg/kg i.p. daily for 10 days) was “+0.46” and the Δ body wt ([3]; normal mice, 1.872 mg/kg i.p. daily for 10 days) was “+0.39”. For the same molecule, the Δ body wt ([3]; normal mice, 3.744 mg/kg i.p. daily for 10 days) was “+0.1”, the Δ body wt ([3]; normal mice, 7.488 mg/kg i.p. daily for 10 days) was -0.2 and the “30 day mortality rate of all treated nontumorous animals (compared with mortality in 10 days)” value ([3]; normal mice) was “identical”. The mortality at 240 h ([4]; 0.234 mg/kg) was 0%, the mortality at 240 h ([4]; 0.468 mg/kg) was 0% and the mortality at 240 h ([4]; 0.936 mg/kg) was 0%. For the same molecule, the mortality at 240 h ([4]; 1.872 mg/kg) was 0%, the mortality at 240 h ([4]; 3.744 mg/kg) was 0% and the mortality at 240 h ([4]; 7.488 mg/kg) was 0%. For the same molecule, the mortality at 240 h ([4]; 14.896 mg/kg) was 100%, the Δ body wt [5, 10] was “+0.96” and the Δ body wt [5, 11] was “+0.65”. The Δ body wt [5, 12] was “+0.6”, the Δ body wt [5, 13] was “+0.4” and the Δ body wt [5, 14] was “+0.3”. For the same molecule, the Δ body wt [5, 15] was “+0.1”.

With `CC(=O)C(O)N1C(=O)CCC1=O` (centres unmarked) [Methylglyoxal-succinimide, N-(2-keto-propane-1ol)-2,5diketo pyrrolidine] the water solubility [7] was “high”.
